Non-standard residues stand in square brackets, D forms with d. Residues, ends and D or L forms follow the SMILES beside them.
Assays:
[1] = system: U-87MG sub-cutaneous xenograft tumors; experiment: Sub-cutaneous U-87MG xenograft, tumor growth; format: in vivo, human U-87MG in nude mice; conditions: s.c. U-87MG xenograft, 20 μM intra-tumoral every two days, end point, n=5
Method: Figure 3 VDAC1-based peptides inhibit tumor growth, cell proliferation, and invasion in a glioblastoma xenograft mice model A. Graphical representation of the xenograft experiment protocol used. U-87MG cells (3×10^6/mouse) were inoculated into male nude mice as described in Materials and Methods available online in Supplemental information. B, C. […] The calculated average tumor volumes are presented as means ± SE (n=5) (* p≤0.05, ** p≤0.01). C. The volume of peptide-treated tumors is presented as % of control for each indicated time. Results = mean ± SE (n=5) (* p≤0.05, ** […]). […] E. Quantitative analysis of Ki-67 positive cells. Results = mean ± SE (n=5) (*** p<0.001). […]
U-87MG glioblastoma cells (3 x10^6) were inoculated s.c. into the hind leg flanks of athymic eight-week old male nude mice (Envigo). Thirteen days post-inoculation, tumor volume was measured (100-130 mm^3) and mice were randomized into three groups (5 animals/group), treated with PBS containing 0.26% DMSO or peptide in PBS, 0.26% DMSO/20 μM every second day. […]
(Calbiochem, UK). […] Thirteen days post-inoculation, using various primary antibodies (sources and dilutions tumor volume was measured and calculated (100-130 as detailed in supplementary Table 2), followed by mm3) and mice were randomized into three groups (5 the appropriate HRP-conjugated secondary antibodies mice/group). […]

[2] = system: LN-18 cells; experiment: Cell death by PI staining and flow cytometry, LN-18; format: cell-based, human; conditions: 6 h at 37°C, serum-free medium, means ± SD (n=3), Fig 1H, read-out: IC50 for inducing cell death
Text: (§1) Figure 1 VDAC1-based peptides induce dramatic cell death of several brain tumor-derived cell lines but to lesser extent in primary brain cells A. IHC staining of VDAC1 of human normal brain (n=13) or glioblastoma (n=41) in tissue array slides (Biomax), as described in Materials and methods available online in Supplemental information. Percentages of sections stained at the intensity indicated are shown. […] The VDAC1-derived sequences Δ(1-14)N-terminus and LP4 are in green and pink, respectively. The cell-penetrating peptides Antp and Tf are in orange and blue, respectively. The loop shape of LP4 stabilized by a tryptophan zipper is in purple. The amino acids of Δ(1-14)N-terminus, LP4 and Antp are in the D configuration. The sequences of D-LP4 and Retro-D-LP4 are presented below. C. […] Cells were harvested, washed twice with PBS and cell death was analyzed by propidium iodide (PI) staining and flow cytometry. […] Cells were harvested, washed twice with PBS and cell death was analyzed by PI staining and flow cytometry. […]
(§2) Cells (6×10^5 /ml) were incubated in 500 μl serum-free medium with the peptide of interest for 6 h at 37°C in the presence of 5% CO2. The cells were then trypsinized, centrifuged (1500xg, 5 min), washed with PBS and analyzed for cell death using propidium iodide (PI) staining and flow cytometer (Beckton-Dickinson, San Jose, CA) and BD CellQuest Pro software. […]

[3] = system: U-251MG cells; experiment: Cell death by PI staining and flow cytometry, U-251MG; format: cell-based, human; conditions: 6 h at 37°C, serum-free medium, means ± SD (n=3), Fig 1H, read-out: IC50 for inducing cell death
Text: as §1, §2

Q: How did the “lower average tumor volume relative to PBS/DMSO” value [1] turn out when CC[C@@H](C)[C@@H](NC(=O)[C@@H](CCCCN)NC(=O)[C@H](NC(=O)[C@@H](CCC(N)=O)NC(=O)[C@@H](CCCNC(=N)N)NC(=O)[C@@H](CC(C)C)NC(=O)CNC(=O)[C@@H](Cc1ccccc1)NC(=O)CNC(=O)[C@@H](Cc1ccc(O)cc1)NC(=O)CNC(=O)[C@@H](CCCCN)NC(=O)[C@H](NC(=O)[C@@H](Cc1ccccc1)NC(=O)[C@H](NC(=O)[C@@H](CC(=O)O)NC(=O)[C@H](N)CCCNC(=N)N)C(C)C)[C@H](C)O)[C@H](C)CC)C(=O)N[C@H](Cc1c[nH]c2ccccc12)C(=O)N[C@H](Cc1ccccc1)C(=O)N[C@H](CCC(N)=O)C(=O)N[C@H](CC(N)=O)C(=O)N[C@H](CCCNC(=N)N)C(=O)N[C@H](CCCNC(=N)N)C(=O)N[C@H](CCSC)C(=O)N[C@H](CCCCN)C(=O)N[C@H](Cc1c[nH]c2ccccc12)C(=O)N[C@H](CCCCN)C(=O)N[C@H](CCCCN)C(=O)O [D-ΔN-Ter-Antp] (H-[dR][dD][dV][dF][dT][dK]G[dY]G[dF]G[dL][dR][dQ][dI][dK][dI][dW][dF][dQ][dN][dR][dR][dM][dK][dW][dK][dK]-OH; N-terminus and C-terminus assumed) was run?
A: about 75%

Q: What about the IC50 [2] of the same molecule?
A: 3 ± 0.6 µM

Q: What about the IC50 [3] of the same molecule?
A: 4.7 ± 0.9 µM

— PMC5458211, “Mitochondrial VDAC1-based peptides: Attacking oncogenic properties in glioblastoma” (Oncotarget, 2017)
